Where “and” joins values, the source holds several entries; their conditions need not be identical. Identical values can stand only once. Entries after “also recorded” stand apart in the source; their conditions may differ.
Experiments:
[1] = biological target: T1, G2019S variant of human LRRK2 (G2019S-LRRK2) (Homo sapiens, UniProt Q5S007, G2019S); assay: LRRK2 pSer1292 autophosphorylation western immunoblot in HEK293 cells stably overexpressing G2019S-LRRK2; assay type: cell-based; details: for decrease in LRRK2 pSer1292 levels: G2019S-LRRK2 cells, 2 h
T1 construct: WT-LRRK2 or G2019S-LRRK2 overexpressing cells show expression of LRRK2 pSer1292 and full-length LRRK2; expressed in transfected cells
T1 sequence (Q5S007 whole entry G2019S): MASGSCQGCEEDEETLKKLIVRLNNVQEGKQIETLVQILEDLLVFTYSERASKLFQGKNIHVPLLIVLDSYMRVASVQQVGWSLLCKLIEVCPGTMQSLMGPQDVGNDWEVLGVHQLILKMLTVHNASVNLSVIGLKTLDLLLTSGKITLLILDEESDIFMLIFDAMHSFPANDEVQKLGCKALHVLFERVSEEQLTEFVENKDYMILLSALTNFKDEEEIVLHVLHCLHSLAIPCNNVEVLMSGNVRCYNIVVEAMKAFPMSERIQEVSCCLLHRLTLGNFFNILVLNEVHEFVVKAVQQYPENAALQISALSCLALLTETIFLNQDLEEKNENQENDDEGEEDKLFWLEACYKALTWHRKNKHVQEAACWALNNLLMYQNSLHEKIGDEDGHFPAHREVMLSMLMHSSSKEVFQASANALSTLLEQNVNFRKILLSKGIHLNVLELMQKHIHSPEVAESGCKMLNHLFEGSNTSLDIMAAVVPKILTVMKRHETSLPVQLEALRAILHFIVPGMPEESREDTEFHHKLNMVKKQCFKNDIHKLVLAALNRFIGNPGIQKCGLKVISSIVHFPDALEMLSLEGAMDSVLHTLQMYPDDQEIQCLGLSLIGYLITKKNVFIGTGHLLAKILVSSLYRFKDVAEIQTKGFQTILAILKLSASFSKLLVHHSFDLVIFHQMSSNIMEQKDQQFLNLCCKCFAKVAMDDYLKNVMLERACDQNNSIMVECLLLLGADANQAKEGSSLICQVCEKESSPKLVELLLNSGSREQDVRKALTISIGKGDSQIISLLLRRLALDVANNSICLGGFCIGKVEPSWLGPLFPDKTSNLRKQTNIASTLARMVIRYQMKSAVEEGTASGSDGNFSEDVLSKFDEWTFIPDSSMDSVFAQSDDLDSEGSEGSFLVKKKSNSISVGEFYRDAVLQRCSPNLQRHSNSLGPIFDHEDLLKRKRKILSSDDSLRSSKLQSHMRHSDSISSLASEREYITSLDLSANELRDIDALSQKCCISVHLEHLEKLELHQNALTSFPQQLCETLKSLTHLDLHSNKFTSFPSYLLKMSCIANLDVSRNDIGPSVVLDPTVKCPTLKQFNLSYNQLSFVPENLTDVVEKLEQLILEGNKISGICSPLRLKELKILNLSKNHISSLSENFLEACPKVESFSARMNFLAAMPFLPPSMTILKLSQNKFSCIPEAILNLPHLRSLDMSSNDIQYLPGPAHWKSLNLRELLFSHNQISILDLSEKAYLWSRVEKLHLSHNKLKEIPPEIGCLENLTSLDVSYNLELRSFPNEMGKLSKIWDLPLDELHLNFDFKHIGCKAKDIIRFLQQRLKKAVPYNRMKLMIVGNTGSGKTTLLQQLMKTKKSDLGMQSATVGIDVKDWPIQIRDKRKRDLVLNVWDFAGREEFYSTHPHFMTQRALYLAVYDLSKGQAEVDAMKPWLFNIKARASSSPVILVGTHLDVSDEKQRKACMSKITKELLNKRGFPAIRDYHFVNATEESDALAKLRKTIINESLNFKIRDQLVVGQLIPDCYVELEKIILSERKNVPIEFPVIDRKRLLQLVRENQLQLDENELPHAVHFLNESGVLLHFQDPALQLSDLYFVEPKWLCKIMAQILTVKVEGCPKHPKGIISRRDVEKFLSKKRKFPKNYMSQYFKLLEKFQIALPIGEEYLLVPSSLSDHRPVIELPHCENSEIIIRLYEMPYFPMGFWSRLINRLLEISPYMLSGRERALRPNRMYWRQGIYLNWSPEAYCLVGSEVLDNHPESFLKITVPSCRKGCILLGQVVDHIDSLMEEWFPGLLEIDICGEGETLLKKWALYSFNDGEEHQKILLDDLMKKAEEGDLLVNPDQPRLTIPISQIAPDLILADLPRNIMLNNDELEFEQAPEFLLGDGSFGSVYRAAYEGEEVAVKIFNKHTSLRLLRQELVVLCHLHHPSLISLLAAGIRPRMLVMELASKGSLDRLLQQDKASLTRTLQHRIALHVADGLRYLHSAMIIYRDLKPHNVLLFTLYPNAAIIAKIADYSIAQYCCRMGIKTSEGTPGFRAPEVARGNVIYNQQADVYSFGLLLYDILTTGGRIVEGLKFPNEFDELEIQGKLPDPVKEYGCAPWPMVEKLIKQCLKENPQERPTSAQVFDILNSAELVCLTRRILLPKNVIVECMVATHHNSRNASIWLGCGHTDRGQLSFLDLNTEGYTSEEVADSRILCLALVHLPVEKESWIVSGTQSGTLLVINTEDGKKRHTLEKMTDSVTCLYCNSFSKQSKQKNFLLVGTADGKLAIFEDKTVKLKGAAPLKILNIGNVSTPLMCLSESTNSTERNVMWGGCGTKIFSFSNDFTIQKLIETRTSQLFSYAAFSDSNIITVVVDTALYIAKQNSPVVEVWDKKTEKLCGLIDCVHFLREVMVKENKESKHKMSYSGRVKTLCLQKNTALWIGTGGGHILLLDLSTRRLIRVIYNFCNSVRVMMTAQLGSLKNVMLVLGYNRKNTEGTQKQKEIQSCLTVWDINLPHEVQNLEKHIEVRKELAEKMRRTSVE
Description: (§1) Cells were plated at a density of 0.3 × 10^6 cells in a 6-well dish and treated at ~40–50% confluency. At the time of harvest, cells were collected and either protein collected or DNA extracted as described below.
(§2) For LRRK2-WT or G2019S-LRRK2, ~1.5 million cells were pelleted and resuspended in 75 μl of lysis buffer [(RIPA Buffer (Sigma-Aldrich, R0278-50ML), protease inhibitor cocktail (Sigma-Aldrich, P8340), and Halt phosphatase inhibitor cocktail (Thermo Fisher, 78420)]. For LCLs, five million cells were pelleted and resuspended in 100 µl of lysis buffer. For both types of cells lysates were centrifuged at 10,000 × g after a 10 min incubation on ice, and the supernatant was collected. Protein was quantified using the DC protein assay (Bio-Rad, 5000112). In total, 50 μg of protein was loaded for HEK293 LRRK2-WT or G2019S-LRRK2 cells. Due to the differing endogenous LRRK2 levels, 40 µg of ND02559, 60 µg of ND00264, or 100 µg of ND00011 and ND01618 of protein sample was loaded. Protein samples were incubated at 100 °C for 5 min with NuPAGE Sample loading dye (Thermo Fisher, NP0007) and dithiothreitol as reducing agent. After 4–20% SDS-PAGE, the blots were blocked in 5% w/v nonfat dry milk in 1X PBST (0.05% Tween 20). For our investigations, the following primary antibodies were used: mouse anti-LRRK2 N241a (Antibodies INC, 75-253, 1:5000 for HEK293 cells and 1:2000 for LCLs), rabbit anti-LRRK2 pS935 (Abcam, ab133450, 1:10,000 for HEK293 cells and 1:2000 for LCLs), mouse anti-β-actin (Novus, 8H10D10, 1:10,000), and rabbit anti-LRRK2 pS1292 (Abcam, ab203181, 1:500). The blots were then probed with fluorescent-labeled secondary antibodies, IRDye donkey anti-mouse and anti-rabbit at 1:10,000 (LI-COR, 926-32212, 926-68072), and scanned using an Odyssey Imaging scanner (LI-COR). Fluorescence intensities were quantified using ImageStudio Lite software (LI-COR), and the signal from the protein of interest was normalized to the fluorescence intensity of either LRRK2 or β-actin. Values were averaged from at least three technical replicates within a cell line, or two biological replicates (two healthy control lines and two PD LCLs). All blots were derived from the same experiment and processed in parallel.

human LRRK2 (WT-LRRK2) = biological target: T2, human LRRK2 (WT-LRRK2) (Homo sapiens, UniProt Q5S007); assay: LRRK2 pSer935 quantitative western immunoblot in HEK293 cells stably overexpressing WT-LRRK2; assay type: cell-based
T2 construct: WT-LRRK2 or G2019S-LRRK2 overexpressing cells show expression of LRRK2 pSer1292 and full-length LRRK2; expressed in transfected cells
Description: as §1
(§3) For LRRK2-WT or G2019S-LRRK2, ~1.5 million cells were pelleted and resuspended in 75 μl of lysis buffer [(RIPA Buffer (Sigma-Aldrich, R0278-50ML), protease inhibitor cocktail (Sigma-Aldrich, P8340), and Halt phosphatase inhibitor cocktail (Thermo Fisher, 78420)]. For LCLs, five million cells were pelleted and resuspended in 100 µl of lysis buffer. For both types of cells lysates were centrifuged at 10,000 × g after a 10 min incubation on ice, and the supernatant was collected. Protein was quantified using the DC protein assay (Bio-Rad, 5000112). In total, 50 μg of protein was loaded for HEK293 LRRK2-WT or G2019S-LRRK2 cells. Due to the differing endogenous LRRK2 levels, 40 µg of ND02559, 60 µg of ND00264, or 100 µg of ND00011 and ND01618 of protein sample was loaded. Protein samples were incubated at 100 °C for 5 min with NuPAGE Sample loading dye (Thermo Fisher, NP0007) and dithiothreitol as reducing agent. […] Fluorescence intensities were quantified using ImageStudio Lite software (LI-COR), and the signal from the protein of interest was normalized to the fluorescence intensity of either LRRK2 or β-actin. […]

[2] = parameters: method as in PMID 33197196; details: cited from earlier work
[3] = biological target: T3, LRRK2 in healthy control lymphoblastoid cells (LCLs) (Homo sapiens, UniProt Q5S007); assay: LRRK2 pSer935 western immunoblot in healthy control-derived LCLs; assay type: cell-based; details: 10 and 100 nM, 2 h
T3 construct: Due to the differing endogenous LRRK2 levels; host or cells: healthy subject control-derived lymphoblastoid cell lines (n = 2)
T3 sequence (Q5S007 whole entry): as the sequence (Q5S007 whole entry G2019S) above, with S2019G counted along it
Description: (§4) PD patient G2019S LRRK2 (n = 2) and healthy subject control (n = 2)-derived LCLs were obtained from the NINDS Coriell biorepository (ID numbers are ND00011, ND00264, ND01618, ND02559). […] LCLs were cultured at 37 °C, 5% CO2, in RPMI-1640 (Sigma-Aldrich, R8758), 15% heat-inactivated fetal bovine serum (VWR Seradigm, 97068-091) and 0.5% Penicillin/Streptomycin (Corning, 30-002-CI). […] All in vitro experiments were repeated at least three times from distinct samples.
as §3, with “cells.” for “cells. Due to the differing endogenous LRRK2 levels, 40 µg of ND02559, 60 µg of ND00264, or 100 µg of ND00011 and ND01618 of protein sample was loaded. Protein samples were incubated at 100 °C for 5 min with NuPAGE Sample loading dye (Thermo Fisher, NP0007) and dithiothreitol as reducing agent.”

[4] = biological target: T1, G2019S variant of human LRRK2 (G2019S-LRRK2); assay: LRRK2 pSer935 quantitative western immunoblot in HEK293 cells stably overexpressing G2019S-LRRK2; assay type: cell-based
Description: as §1
as §2, with “Values were averaged from at least three technical replicates within a cell line, or two biological replicates (two healthy control lines and two PD LCLs). All blots were derived from the same experiment and processed in parallel.” left out

[5] = tested on: LRRK2 in heterozygous G2019S LRRK2 PD patient-derived LCLs; assay: LRRK2 pSer935 western immunoblot in heterozygous G2019S LRRK2 PD patient-derived LCLs; assay type: cell-based, human; details: for decrease in LRRK2 pSer935 levels: heterozygous G2019S LRRK2 PD LCLs
Description: as §4, §2

R1441C LRRK2 cultures = tested on: R1441C LRRK2 cultures; parameters: method as in PMID 37384414; details: R1441C LRRK2 cultures ref 71; cited from earlier work
[6] = tested on: heterozygous G2019S LRRK2 PD patient-derived LCLs; parameters: method as in PMID 33057100; details: acute treatment (1.5 h) ref 49; cited from earlier work

Row | IC50 ([1]; G2019S-LRRK2 HEK293 cells, 2 h treatment, read-out: calculated IC50 of LRRK2 pSer1292) [nM] | decrease in LRRK2 pSer1292 levels ([1]; 10 nM) [%] | decrease in LRRK2 pSer1292 levels ([1]; 10 nM, listed as EB-42618) | decrease in LRRK2 pSer1292 levels ([1]; 100 nM) | IC50 (human LRRK2 (WT-LRRK2); WT LRRK2 HEK293 cell line, 2 h treatment, 10 nM-1 μM titration, read-out: calculated half-maximal inhibition (IC50) of LRRK2 pSer935) [nM] | IC50 ([4]; G2019S LRRK2 HEK293 cell line, 2 h treatment, 10 nM-1 μM titration, read-out: calculated half-maximal inhibition (IC50) of LRRK2 pSer935) [nM] | decrease in LRRK2 pSer935 levels ([4]; G2019S-LRRK2 cells, 10 nM, 2 h) | fold more potent on G2019S LRRK2 than WT LRRK2 (pS935 IC50) ([4]; HEK293 overexpressing cells) [fold] | Compound | effect on LRRK2 pSer935 over the concentration range (in words) (human LRRK2 (WT-LRRK2); WT-LRRK2 cells, 10 nM up to 1 μM, 2 h) | brain penetration [2] | effect on LRRK2 pSer935 (in words) [3] | decrease in LRRK2 pSer935 levels ([5]; 10 nM, 2 h) | decrease in LRRK2 pSer935 levels ([5]; 100 nM, 2 h) [%] | decrease of LRRK2 pSer935 ([5]; human PD patient-derived cells heterozygous for G2019S LRRK2, concentration not given) | impaired mitophagy and other mitochondrial parameters (R1441C LRRK2 cultures) | mtDNA damage [6] | effect on LRRK2 pSer935 (in words) ([5]; G2019S LRRK2 PD LCLs, 10 and 100 nM, 2 h)
1 | 44 | 30 | dephosphorylated | ~ 70% and 65% | > 5000 | 54 | no significant dephosphorylation | > 90 | CC1=C(C(=O)Nc2ccc3[nH]nc(-c4ccnc(N5CCOCC5)c4)c3c2)C(C)(C)n2nnnc2N1C [EB-42168] | no inhibition; also recorded: no change; also recorded: no detectable effect | poorly brain penetrant | did not impact; also recorded: no change; also recorded: without a change | ~ 30% and 25% | ~40 | about 40% | – | – | –
2 | – | – | – | – | – | – | – | – | C[C@@H]1CN(c2cc(-c3n[nH]c4ccc(OC5(C)CC5)cc34)ncn2)C[C@H](C)O1 [MLi-2, reference compound] | – | – | – | – | – | – | not corrected | restored mtDNA damage to healthy control levels | almost completely; also recorded: almost complete

— PMC10907374, “G2019S selective LRRK2 kinase inhibitor abrogates mitochondrial DNA damage” (NPJ Parkinson's Disease, 2024)
